Test results as given in US8846704B2, “Thiopyrimidine-based compounds and uses thereof” (YM Biosciences Austraila Pty Ltd, priority 2007, dated 2014).

The molecules below were run against T1, BaF3 TELJAK3 cells (Homo sapiens, UniProt P52333) (assay: Cellular screening, BaF3 TEL:JAK3 cells, Alamar Blue). Conditions: 40 hr, read-out: BafT_J3 IC50_nM.
T1 construct: fused on or other part: TEL (ETV6) N-terminal part, coding nucleotides 1-487, serves as the oligomerising partner; It is fused through a Sal I site to the JAK3 kinase domain and expressed from pTRE2 in BaF3 cells bearing pTET-off; P41212 (Transcription factor ETV6)
T1 sequence (P52333 1-1124): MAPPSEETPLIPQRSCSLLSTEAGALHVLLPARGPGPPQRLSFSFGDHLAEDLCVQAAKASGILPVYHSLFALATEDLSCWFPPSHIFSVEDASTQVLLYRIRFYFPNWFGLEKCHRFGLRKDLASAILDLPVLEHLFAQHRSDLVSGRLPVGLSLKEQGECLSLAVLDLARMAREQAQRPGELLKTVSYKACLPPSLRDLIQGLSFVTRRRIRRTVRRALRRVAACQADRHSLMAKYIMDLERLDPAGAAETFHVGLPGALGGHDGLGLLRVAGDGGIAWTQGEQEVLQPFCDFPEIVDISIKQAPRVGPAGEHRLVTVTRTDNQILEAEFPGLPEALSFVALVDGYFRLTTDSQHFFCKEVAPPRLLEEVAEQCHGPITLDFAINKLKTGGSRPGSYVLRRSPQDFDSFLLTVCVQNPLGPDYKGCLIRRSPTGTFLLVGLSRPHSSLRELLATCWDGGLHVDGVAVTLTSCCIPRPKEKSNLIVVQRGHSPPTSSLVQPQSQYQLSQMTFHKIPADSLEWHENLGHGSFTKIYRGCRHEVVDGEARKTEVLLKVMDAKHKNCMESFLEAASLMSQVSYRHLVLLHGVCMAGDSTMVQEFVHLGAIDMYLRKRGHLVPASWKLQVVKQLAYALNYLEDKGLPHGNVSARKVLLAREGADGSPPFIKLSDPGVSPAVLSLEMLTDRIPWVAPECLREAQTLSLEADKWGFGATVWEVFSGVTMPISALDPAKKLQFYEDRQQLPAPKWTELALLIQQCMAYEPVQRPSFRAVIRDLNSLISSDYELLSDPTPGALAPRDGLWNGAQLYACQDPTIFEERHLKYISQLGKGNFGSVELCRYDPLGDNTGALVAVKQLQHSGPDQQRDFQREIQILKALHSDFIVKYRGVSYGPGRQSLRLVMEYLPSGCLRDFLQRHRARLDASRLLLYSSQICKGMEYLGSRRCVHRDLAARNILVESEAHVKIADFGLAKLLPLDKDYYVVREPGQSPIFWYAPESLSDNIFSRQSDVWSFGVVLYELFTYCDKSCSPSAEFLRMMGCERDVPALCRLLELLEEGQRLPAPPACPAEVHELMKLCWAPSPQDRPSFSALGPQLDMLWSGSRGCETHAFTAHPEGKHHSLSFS
Type: cell-based
Procedure, shortened: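 Alamar Blue signal at 544 nm, developed for 4–6 h, measured viability after 40 h of compound treatment at 37 °C, 5% CO2. Cells were growth-factor-independent BaF3 lines transfected with a TEL/JAK3 kinase-domain fusion under tet-off control. They were cultured in DMEM, 10% Tet-approved FBS, lacking WEHI 3B conditioned medium.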

C=CC(=O)Nc1ccc(Sc2nc(Nc3ccc(C)c(Br)c3)ncc2C)cc1 [Compound 242, N-(4-(2-(3-bromo-4-methylphenylao)-5-methylpyrimidin-4-ylthio)phenyl)acrylamide] and C=CC(=O)Nc1ccc(Sc2nc(Nc3ccc(NS(C)(=O)=O)cc3)ncc2C)cc1 [Compound 285, N-(4-(5-methyl-2-(4-(methylsulfonamido)phenylao)pyrimidin-4-ylthio)phenyl)acrylamide] cannot be ordered by GI50: < 20000 nM for the first, < 1000 nM for the second.

C=CC(=O)Nc1ccc(Sc2nc(Nc3ccc(N4CCOCC4)cc3)ncc2F)cc1 [Compound 268, N-(4-(5-fluoro-2-(4-morpholinophenylao)pyrimidin-4-ylthio)phenyl)acrylamide] and C=CC(=O)Nc1ccc(Sc2nc(Nc3cccc(N4CCOCC4)c3)ncc2F)cc1 [Compound 267, N-(4-(5-fluoro-2-(3-morpholinophenylao)pyrimidin-4-ylthio)phenyl)acrylamide] cannot be ordered by GI50: < 1000 nM for the first, < 1000 nM for the second.

C=CC(=O)Nc1ccc(Sc2ccnc(Nc3ccc(S(N)(=O)=O)c(OC)c3)n2)cc1 [Compound 374, N-(4-(2-(3-methoxy-4-sulfamoylphenylao)pyrimidin-4-ylthio)phenyl)acrylamide] and C=CC(=O)Nc1ccc(Sc2ccnc(Nc3cccc(O)c3)n2)cc1 [Compound 277, N-(4-(2-(3-hydroxyphenylao)pyrimidin-4-ylthio)phenyl)acrylamide] cannot be ordered by GI50: < 1000 nM for the first, < 1000 nM for the second.

C=CC(=O)Nc1ccc(Sc2ccnc(Nc3cc(C)cc(C)c3)n2)cc1 [Compound 82, N-(4-(2-(3,5-dimethylphenylao)pyrimidin-4-ylthio)phenyl)acrylamide] and C=CC(=O)Nc1ccc(Sc2ccnc(Nc3ccc(O)cc3)n2)cc1 [Compound 276, N-(4-(2-(4-hydroxyphenylao)pyrimidin-4-ylthio)phenyl)acrylamide] cannot be ordered by GI50: < 5000 nM for the first, < 1000 nM for the second.

C=CC(=O)Nc1ccc(Sc2nc(Nc3ccc(N4CCOCC4)c(OC)c3)ncc2C)cc1 [Compound 248, N-(4-(2-(3-methoxy-4-morpholinophenylao)-5-methylpyrimidin-4-ylthio)phenyl)acrylamide] and C=CC(=O)NCc1cccc(Sc2ccnc(Nc3ccc(N4CCOCC4)cc3)n2)c1 [Compound 112, N-(3-(2-(4-morpholinophenylamino)pyrimidin-4-ylthio)benzyl)acrylamide] cannot be ordered by GI50: < 1000 nM for the first, < 20000 nM for the second.

C=CC(=O)Nc1cccc(Nc2nccc(Sc3ccc(OC)cc3)n2)c1 [Compound 42, N-(3-(4-(4-methoxyphenylthio)pyrimidin-2-ylao)phenyl)acrylamide] was tested, and the GI50 was < 5000 nM.
